# Test results published in patent US20140005163A1 (NOVARTIS AG, priority 2010, published 2014).
# Experiments:
# [1] = test system: PKB Ser473 phosphorylation in Rat1-myr-HA-p110 beta cells; test: Reverse protein array assay, PKB Ser473 phosphorylation in Rat1-myr-p110 beta cells; type: cell-based; conditions: 0.5 h, pAkt Ser473, 30 minutes incubation, read-out: p-PKB IC50
# Procedure, shortened: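 Measured: PKB Ser473 phosphorylation by reverse protein array in Rat1 cells expressing myr-HA-p110 alpha, beta or delta, after 30 min compound treatment at 37 °C with 0.2% DMSO vehicle.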
# mTOR = target: T1, mTOR (Homo sapiens, UniProt P42345); test: Biochemical assay for m-TOR by TR-FRET; conditions: 8 μM ATP, 400 nM GFP-4EBP1, 0.5 nM mTOR
# T1 construct: purchased Invitrogen Corporation (Carlsbad/CA, USA) PV4753
# T1 sequence (P42345 1360-2549 limits assumed): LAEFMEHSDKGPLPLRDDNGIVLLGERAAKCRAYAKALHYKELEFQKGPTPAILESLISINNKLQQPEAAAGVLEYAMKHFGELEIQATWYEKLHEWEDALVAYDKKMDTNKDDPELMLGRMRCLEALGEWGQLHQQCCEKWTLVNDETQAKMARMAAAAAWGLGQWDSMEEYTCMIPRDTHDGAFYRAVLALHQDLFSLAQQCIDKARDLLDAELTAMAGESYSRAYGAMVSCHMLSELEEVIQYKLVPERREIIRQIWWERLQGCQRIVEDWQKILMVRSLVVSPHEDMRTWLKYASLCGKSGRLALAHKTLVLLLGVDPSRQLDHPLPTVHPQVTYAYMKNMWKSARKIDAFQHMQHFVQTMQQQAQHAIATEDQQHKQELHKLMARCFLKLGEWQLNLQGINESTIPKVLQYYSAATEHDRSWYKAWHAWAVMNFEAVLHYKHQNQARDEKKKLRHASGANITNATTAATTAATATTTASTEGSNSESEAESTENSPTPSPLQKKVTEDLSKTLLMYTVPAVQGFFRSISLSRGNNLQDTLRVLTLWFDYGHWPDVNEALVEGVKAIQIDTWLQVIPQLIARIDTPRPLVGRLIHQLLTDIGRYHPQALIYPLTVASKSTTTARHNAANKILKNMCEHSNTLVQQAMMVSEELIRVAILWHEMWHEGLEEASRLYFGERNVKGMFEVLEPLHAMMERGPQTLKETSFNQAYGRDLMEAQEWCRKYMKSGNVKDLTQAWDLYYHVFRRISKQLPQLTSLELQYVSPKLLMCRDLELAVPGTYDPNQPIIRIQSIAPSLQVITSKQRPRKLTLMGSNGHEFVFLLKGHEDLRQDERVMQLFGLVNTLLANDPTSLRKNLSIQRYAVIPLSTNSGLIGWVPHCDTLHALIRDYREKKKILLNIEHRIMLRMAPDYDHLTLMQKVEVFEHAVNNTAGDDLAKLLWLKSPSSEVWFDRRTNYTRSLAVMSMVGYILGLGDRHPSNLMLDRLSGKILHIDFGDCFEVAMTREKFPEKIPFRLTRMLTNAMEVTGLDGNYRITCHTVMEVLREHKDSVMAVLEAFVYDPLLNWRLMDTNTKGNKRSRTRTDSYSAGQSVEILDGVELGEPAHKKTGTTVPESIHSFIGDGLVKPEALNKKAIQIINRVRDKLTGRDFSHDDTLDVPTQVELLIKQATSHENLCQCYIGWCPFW
# Procedure, shortened: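 Steps: ATP (8 μM final) plus GFP-4EBP1 (400 nM final) combined with mTOR (0.5 nM final), incubated at rt; buffer HEPES pH 7.5 with 10 mM MnCl2, NaCl, EGTA, DTT. Then stopped with EDTA/Tb3+-anti-p4EBP1 pT46 Ab (0.5 nM). Plates read after 15 min.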
# PI3K beta = target: T2, PI3K beta (Homo sapiens, UniProt P42338); test: PI3K beta kinase assay (Kinase-Glo luminescence); type: biochemical
# T2 construct: for the full-length p110-b subunit are generated and fused by overlapping PCR; p85(iSH2) fusion partner (see partner chain) (N); His tag (C); made in house; host or cells: baculovirus; Tn5 (Trichoplusia ni) or TiniPro insect cells
# T2 sequence (P42338 with tags, fused parts or gaps limits assumed): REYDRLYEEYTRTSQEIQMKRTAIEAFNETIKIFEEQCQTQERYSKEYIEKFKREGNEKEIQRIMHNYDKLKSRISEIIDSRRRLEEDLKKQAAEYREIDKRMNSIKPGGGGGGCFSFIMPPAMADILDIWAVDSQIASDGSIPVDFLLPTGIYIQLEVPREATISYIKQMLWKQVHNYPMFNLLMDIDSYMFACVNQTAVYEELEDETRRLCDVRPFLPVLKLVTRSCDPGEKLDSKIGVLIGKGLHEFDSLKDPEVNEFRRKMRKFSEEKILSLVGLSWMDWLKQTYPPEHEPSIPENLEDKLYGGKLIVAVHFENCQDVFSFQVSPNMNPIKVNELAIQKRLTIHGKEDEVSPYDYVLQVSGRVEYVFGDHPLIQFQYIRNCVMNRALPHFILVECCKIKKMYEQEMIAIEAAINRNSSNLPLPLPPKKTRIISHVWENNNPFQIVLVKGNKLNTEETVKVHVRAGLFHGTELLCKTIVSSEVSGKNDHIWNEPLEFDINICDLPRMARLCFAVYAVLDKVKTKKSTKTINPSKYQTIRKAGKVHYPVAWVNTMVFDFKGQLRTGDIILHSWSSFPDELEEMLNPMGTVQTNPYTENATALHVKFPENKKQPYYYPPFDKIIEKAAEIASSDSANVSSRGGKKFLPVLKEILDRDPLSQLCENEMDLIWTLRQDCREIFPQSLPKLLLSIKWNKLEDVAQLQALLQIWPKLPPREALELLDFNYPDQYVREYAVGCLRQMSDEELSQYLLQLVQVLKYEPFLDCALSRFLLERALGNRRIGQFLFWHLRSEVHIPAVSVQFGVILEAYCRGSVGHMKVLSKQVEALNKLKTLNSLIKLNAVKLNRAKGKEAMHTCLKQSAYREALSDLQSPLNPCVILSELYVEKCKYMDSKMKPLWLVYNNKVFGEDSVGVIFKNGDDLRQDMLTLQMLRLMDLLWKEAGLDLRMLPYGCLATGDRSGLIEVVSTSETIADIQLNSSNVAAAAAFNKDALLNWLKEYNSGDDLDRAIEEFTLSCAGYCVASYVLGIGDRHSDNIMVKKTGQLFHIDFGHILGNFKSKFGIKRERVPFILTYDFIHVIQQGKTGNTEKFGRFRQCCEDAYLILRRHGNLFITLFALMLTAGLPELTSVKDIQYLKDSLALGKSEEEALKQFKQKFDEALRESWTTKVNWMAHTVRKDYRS
# Procedure, shortened: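 Enzyme: BV949 p85(iSH2)-Gly linker-p110β FL-His, 25 nM. Substrate: PI 10 μg/mL. ATP: 1 μM, added to start. Buffer: Tris pH 7.5 10 mM, MgCl2 3 mM, NaCl 50 mM, CHAPS 0.05%, DTT 1 mM. RT, 60 min. Readout: Kinase-Glo. IC50 by 4-parameter fit.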
Compound,IC50 [1],IC50 (mTOR),IC50 (PI3K beta)
"COc1ccc(-c2ccc3ncc4c(c3c2)n(-c2c(C)nn(C)c2C)c(=O)n4C)cn1 [Example 2.4, 8-(6-Methoxy-pyridin-3-yl)-3-methyl-1-(1,3,5-trimethyl-1H-pyrazol-4-yl)-1,3-dihydro-imidazo[4,5-c]quinolin-2-one]",386 nM,448 nM,120 nM
"CCOc1ccc(-c2ccc3ncc4c(c3c2)n(-c2cn(C)nc2C)c(=O)n4C)cn1 [Example 3.1, 1-(1,3-Dimethyl-1H-pyrazol-4-yl)-8-(6-ethoxy-pyridin-3-yl)-3-methyl-1,3-dihydro-imidazo[4,5-c]quinolin-2-one]",20 nM,11 nM,192 nM
"CCOc1ccc(-c2ccc3ncc4c(c3c2)n(-c2cn(CC(=O)N3CCOCC3)nc2C)c(=O)n4C)cn1 [Example 3.10, 8-(6-Ethoxy-pyridin-3-yl)-3-methyl-1-[3-methyl-1-(2-morpholin-4-yl-2-oxo-ethyl)-1H-pyrazol-4-yl]-1,3-dihydro-imidazo[4,5-c]quinolin-2-one]",70 nM,18 nM,–
"CCOc1ccc(-c2ccc3ncc4c(c3c2)n(-c2c(C)nn(CC(=O)N(C)C)c2C)c(=O)n4C)cn1 [Example 3.12, 2-{4-[8-(6-Ethoxy-pyridin-3-yl)-3-methyl-2-oxo-2,3-dihydro-imidazo[4,5-c]quinolin-1-yl]-3,5-dimethyl-pyrazol-1-yl}-N,N-dimethyl-acetamide]",166 nM,548 nM,–
"CCn1cc(-n2c(=O)n(C)c3cnc4ccc(-c5ccc(N(C)C)nc5)cc4c32)c(C)n1 [Example 4.2, 8-(6-Dimethylamino-pyridin-3-yl)-1-(1-ethyl-3-methyl-1H-pyrazol-4-yl)-3-methyl-1,3-dihydro-imidazo[4,5-c]quinolin-2-one]",19 nM,15 nM,225 nM
"Cc1nn(C)c(C)c1-n1c(=O)n(C)c2cnc3ccc(-c4ccc(N(C)C)nc4)cc3c21 [Example 4.3, 8-(6-Dimethylamino-pyridin-3-yl)-3-methyl-1-(1,3,5-trimethyl-1H-pyrazol-4-yl)-1,3-dihydro-imidazo[4,5-c]quinolin-2-one]",615 nM,543 nM,382 nM
"Cc1nn(C(C)C)cc1-n1c(=O)n(C)c2cnc3ccc(-c4ccc(N5CCC5)nc4)cc3c21 [Example 5.2, 8-(6-Azetidin-1-yl-pyridin-3-yl)-1-(1-isopropyl-3-methyl-1H-pyrazol-4-yl)-3-methyl-1,3-dihydro-imidazo[4,5-c]quinolin-2-one]",22 nM,13 nM,–
"Cc1nn(C)cc1-n1c(=O)n(C)c2cnc3ccc(-c4cnc(N(C)C)nc4)cc3c21 [Example 6.2, 8-(2-Dimethylamino-pyrimidin-5-yl)-1-(1,3-dimethyl-1H-pyrazol-4-yl)-3-methyl-1,3-dihydro-imidazo[4,5-c]quinolin-2-one]",47 nM,43 nM,185 nM
"Cc1ccc(-c2ccc3ncc4c(c3c2)n(-c2cn(C)nc2C)c(=O)n4C)cn1 [Example 7.2, 1-(1,3-Dimethyl-1H-pyrazol-4-yl)-3-methyl-8-(6-methyl-pyridin-3-yl)-1,3-dihydro-imidazo[4,5-c]quinolin-2-one]",35 nM,34 nM,66 nM
"Cc1cc(-n2c(=O)n(C)c3cnc4ccc(-c5ccc(C(F)(F)F)nc5)cc4c32)n(C)n1 [Example 8.2, 1-(2,5-Dimethyl-2H-pyrazol-3-yl)-3-methyl-8-(6-trifluoromethyl-pyridin-3-yl)-1,3-dihydro-imidazo[4,5-c]quinolin-2-one]",326 nM,677 nM,387 nM
"COc1cncc(-c2ccc3ncc4c(c3c2)n(-c2cn(C)nc2C)c(=O)n4C)c1 [Example 12, 1-(1,3-Dimethyl-1H-pyrazol-4-yl)-8-(5-methoxy-pyridin-3-yl)-3-methyl-1,3-dihydro-imidazo[4,5-c]quinolin-2-one]",38 nM,17 nM,21 nM
"Cc1nn(C)c(C)c1-n1c(=O)n(C)c2cnc3ccc(-c4cccc(O)c4)cc3c21 [Example 32.2, 8-(3-Hydroxy-phenyl)-3-methyl-1-(1,3,5-trimethyl-1H-pyrazol-4-yl)-1,3-dihydro-imidazo[4,5-c]quinolin-2-one]",725 nM,–,165 nM
"Cc1nn(CC(=O)N(C)C)cc1-n1c(=O)n(C)c2cnc3ccc(-c4ccc(-n5cccn5)cc4)cc3c21 [Example 51.2, N,N-Dimethyl-2-{3-methyl-4-[3-methyl-2-oxo-8-(4-pyrazol-1-yl-phenyl)-2,3-dihydro-imidazo[4,5-c]quinolin-1-yl]-pyrazol-1-yl}-acetamide]",6 nM,< 3 nM,–
"CCOc1cncc(-c2ccc3ncc4c(c3c2)n(-c2c(C)cnn2C)c(=O)n4C)c1 [Example 56.5, 1-(2,4-Dimethyl-2H-pyrazol-3-yl)-8-(5-ethoxy-pyridin-3-yl)-3-methyl-1,3-dihydro-imidazo[4,5-c]quinolin-2-one]",–,763 nM,193 nM
"COCCn1c(=O)n(C)c2ncc(-c3ccc4ncc5c(c4c3)n(-c3cn(C)nc3C)c(=O)n5C)cc21 [Example 69, 1-(1,3-Dimethyl-1H-pyrazol-4-yl)-8-[1-(2-methoxy-ethyl)-3-methyl-2-oxo-2,3-dihydro-1H-imidazo[4,5-b]pyridin-6-yl]-3-methyl-1,3-dihydro-imidazo[4,5-c]quinolin-2-one]",–,639 nM,129 nM
"Cc1nn(C)cc1-n1c(=O)n(C)c2cnc3ccc(-c4cnc5c(c4)nc(N(C)C)n5C)cc3c21 [Example 70, 8-(2-Dimethylamino-3-methyl-3H-imidazo[4,5-b]pyridin-6-yl)-1-(1,3-dimethyl-1H-pyrazol-4-yl)-3-methyl-1,3-dihydro-imidazo[4,5-c]quinolin-2-one]",176 nM,81 nM,–
"CCOc1ccc(-c2ccc3ncc4c(c3c2)n(-c2cn(CC(=O)N(C)CC)nc2C)c(=O)n4C)cn1 [Example 136, 2-{4-[8-(6-Ethoxy-pyridin-3-yl)-3-methyl-2-oxo-2,3-dihydro-imidazo[4,5-c]quinolin-1-yl]-3-methyl-pyrazol-1-yl}-N-ethyl-N-methyl-acetamide]",16 nM,9 nM,–
"COCCN(C)C(=O)Cn1cc(-n2c(=O)n(C)c3cnc4ccc(-c5ccccc5)cc4c32)c(C)n1 [Example 137, N-(2-Methoxy-ethyl)-N-methyl-2-[3-methyl-4-(3-methyl-2-oxo-8-phenyl-2,3-dihydro-imidazo[4,5-c]quinolin-1-yl)-pyrazol-1-yl]-acetamide]",428 nM,324 nM,–
"CCN(CC)C(=O)Cn1cc(-n2c(=O)n(C)c3cnc4ccc(-c5ccc(C)nc5)cc4c32)c(C)n1 [Example 139, N,N-Diethyl-2-{3-methyl-4-[3-methyl-8-(6-methyl-pyridin-3-yl)-2-oxo-2,3-dihydro-imidazo[4,5-c]quinolin-1-yl]-pyrazol-1-yl}-acetamide]",39 nM,21 nM,–
"Cc1nn(C)cc1-n1c(=O)n(C)c2cnc3ccc(-c4ccc(N5CC[C@@H](O)C5)nc4)cc3c21 [Example 212.1, 1-(1,3-Dimethyl-1H-pyrazol-4-yl)-8-[6-((R)-3-hydroxy-pyrrolidin-1-yl)-pyridin-3-yl]-3-methyl-1,3-dihydro-imidazo[4,5-c]quinolin-2-one]",199 nM,72 nM,–
